# Laboratory results as given in patent US4337207A, “Biologically active catecholamine derivatives” (Regents of the University of California, priority 1980, dated 1982).
# Experiments:
# S49 mouse lymphoma cells = experiment: cAMP formation in S49 lymphoma cells (β-adrenergic agonist activity); type: cell-based; settings: for EC50: Mus musculus, catecholamine derivative, read-out: KA (concentration of the catecholamine for approximately half maximal stimulation of cAMP concentration); for activity in words / activity greater than that of isoproterenol: S49 cell assay; for activity greater than that of isoproterenol: relative to isoproterenol
# Excerpt: The in vitro testing of cAMP formation in S49 lymphoma cells is a well documented and accepted test for indicating and anticipating β-adrenergic activity in the mammalian body.
# Such testing procedures and their significance has been set forth in a number of prior publications, e.g. Shear et al., J. Biol. Chem.; 251, 7572 (1976); Coffino, et al., In Vitro, 14, No. 1, 140 et.seq. (1978); and in Johnson, et al.; Molecular Pharmacology, 15, 16-27 (1978). The tests measure increased cyclic adenosine monophosphate (cAMP) concentration in the S49 cells. In Table 1, KA indicates the concentration of the catecholamine for approximately half maximal stimulation of cAMP concentration. Emax is a measure of the maximal response (cAMP concentration) of the S49 cells to the respective catecholamines regardless of how high the concentration of the catecholamines may become. The Table compares the response of the cells to the particular catecholamine derivatives with the cells' response to isoproterenol. Thus a measure of the relative biological activity can be obtained.
# rats = experiment: blood pressure and heart rate changes in rats on administration of the drug; type: in vivo; settings: rat, relative to isoproterenol
# S49 cells = target: T1, S49 cells (Mus musculus, UniProt P18762); experiment: KD in S49 cells; type: binding; settings: relative to isoproterenol
# T1 construct: endogenous in cells; host or cells: S49 lymphoma cells
# Excerpt: (§1) A large dependence of activity on the length of the methylene chain i.e., (CH2)n is seen with the toluides (Compounds 10-14). Of the compounds noted, peak activity is seen in the case of n=4 (Compound 12), which has an activity approximately two orders of magnitude greater than that of isoproterenol.
# C6 cells = target: T2, C6 cells (Rattus norvegicus, UniProt P18090); experiment: KD in C6 cells; type: binding; settings: relative to isoproterenol
# T2 construct: endogenous in cells; host or cells: C6 cells
# Excerpt: as §1
# T1 sequence (P18762 whole entry): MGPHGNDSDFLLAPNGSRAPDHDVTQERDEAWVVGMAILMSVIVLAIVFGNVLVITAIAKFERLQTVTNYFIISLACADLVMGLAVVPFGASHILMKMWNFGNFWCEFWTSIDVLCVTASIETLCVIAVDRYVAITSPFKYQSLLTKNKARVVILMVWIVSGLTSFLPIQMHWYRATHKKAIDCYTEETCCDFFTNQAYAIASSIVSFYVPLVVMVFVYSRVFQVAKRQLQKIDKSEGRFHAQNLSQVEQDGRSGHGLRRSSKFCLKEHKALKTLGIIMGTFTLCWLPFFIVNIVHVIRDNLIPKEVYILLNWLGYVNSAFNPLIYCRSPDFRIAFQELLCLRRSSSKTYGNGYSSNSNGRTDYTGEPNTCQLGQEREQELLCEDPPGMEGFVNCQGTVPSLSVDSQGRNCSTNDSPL
# T2 sequence (P18090 whole entry): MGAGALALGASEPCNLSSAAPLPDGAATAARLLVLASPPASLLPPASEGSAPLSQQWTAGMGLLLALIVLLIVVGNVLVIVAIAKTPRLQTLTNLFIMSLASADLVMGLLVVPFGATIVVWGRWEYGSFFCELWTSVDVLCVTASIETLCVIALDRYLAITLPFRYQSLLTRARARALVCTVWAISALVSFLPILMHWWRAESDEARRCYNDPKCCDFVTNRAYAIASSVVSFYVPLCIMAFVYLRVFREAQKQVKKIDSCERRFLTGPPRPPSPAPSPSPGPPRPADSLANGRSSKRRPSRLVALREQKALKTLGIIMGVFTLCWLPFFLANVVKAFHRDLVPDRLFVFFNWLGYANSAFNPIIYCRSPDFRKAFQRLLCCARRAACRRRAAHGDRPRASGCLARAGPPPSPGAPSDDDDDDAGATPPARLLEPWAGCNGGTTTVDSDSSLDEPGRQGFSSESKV
Structure (SMILES),EC50 (S49 mouse lymphoma cells; S49 lymphoma cells),other results
"CC(C)NCC(O)c1ccc(O)c(O)c1 (racemic) [d,l-Isoproterenol, reference compound]",–,"KA of d,l-isoproterenol (S49 mouse lymphoma cells; S49 lymphoma cells, comparison with the derivative on the same table line): 45 pM"
CC(CCC(=O)O)NCC(O)c1ccc(O)c(O)c1 (stereo not shown) [Compound 6],1600 nM,–
CC(CCCC(=O)O)NCC(O)c1ccc(O)c(O)c1 (stereo not shown) [Compound 7],370 nM,–
"CC(CCCCC(=O)O)NCC(O)c1ccc(O)c(O)c1 (stereo not drawn) [Compound 8, 6-(β-3,4-Dihydroxyphenyl-β-hydroxy)-ethylamino heptanoic acid]",350 nM,–
CC(CCCCCC(=O)O)NCC(O)c1ccc(O)c(O)c1 (stereo not shown) [Compound 9],350 nM,–
Cc1ccc(NC(=O)CCC(C)NCC(O)c2ccc(O)c(O)c2)cc1 (stereo not shown) [Compound 10],3.5 nM,–
Cc1ccc(NC(=O)CCCC(C)NCC(O)c2ccc(O)c(O)c2)cc1 (stereo not shown) [Compound 11],8 nM,–
"Cc1ccc(NC(=O)CCCCC(C)NCC(O)c2ccc(O)c(O)c2)cc1 (stereo not drawn) [Compound 12, 6-(β-3,4-dihydroxyphenyl-β-hydroxy)-ethylamino Heptanoic Acid p-Toluide]",0.056 nM,times more active than isoproterenol (rats): 50-70 times; KD lower than for isoproterenol (S49 cells): 2 orders of magnitude; activity in words (S49 mouse lymphoma cells): peak activity; KD lower than for isoproterenol (C6 cells): 2 orders of magnitude
Cc1ccc(NC(=O)CCCCCC(C)NCC(O)c2ccc(O)c(O)c2)cc1 (stereo not shown) [Compound 14],22 nM,–
CCCCc1ccc(NC(=O)CCCCC(C)NCC(O)c2ccc(O)c(O)c2)cc1 (stereo not shown) [Compound 15],–,activity greater than that of isoproterenol (S49 mouse lymphoma cells): at least 3 orders of magnitude
COc1ccc(NC(=O)CCCCC(C)NCC(O)c2ccc(O)c(O)c2)cc1 (stereo not shown) [Compound 16],13 nM,activity in words (S49 mouse lymphoma cells): approximately the same activity as isoproterenol
CC(CCCCC(=O)Nc1ccc(C(F)(F)F)cc1)NCC(O)c1ccc(O)c(O)c1 (stereo not shown) [Compound 17],–,activity greater than that of isoproterenol (S49 mouse lymphoma cells): at least 3 orders of magnitude
CCCCNC(=O)CCCCC(C)NCC(O)c1ccc(O)c(O)c1 (stereo not shown) [Compound 19],0.18 nM,–
CC(CCCCC(=O)NC1CCCCC1)NCC(O)c1ccc(O)c(O)c1 (stereo not shown) [Compound 20],0.26 nM,–
